Measurements published in PubChem BioAssay AID330 (DTP/NCI, 2004).
Values joined by “and” are separate entries in the source; they are usually repeats but may differ in a detail not shown here. Equal entries are not always repeated. Toxic doses and inconclusive results are not listed. Square brackets hold non-standard residues; d marks the D form. Peptide text beside a SMILES is read from it. * marks the point of attachment. ξ: configuration not given here. ξAsp(βξ-Me) = CC(C(=O)O)C(N)C(=O)O; X11 = CC(N*)C1NC(=O)C2CCCCN2C1=O; ξAbu(3ξ-NH2) = CC(N)C(N)C(=O)O; X10 = CCC(C)CCC/C=C/CC(=O)*

System: P388 leukemia ip, CD2F1 mice, survival T/C
Test: NCI In Vivo Anticancer Drug Screen. Data for tumor model P388 Leukemia (intraperitoneal) in CD2F1 (CDF1) mice
Conditions: endpoint: median survival time, higher = longer survival
Outline: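 Mice carrying the transplanted tumor received test compound or vehicle. Survival was recorded in each group, and the value is the treated-group measurement divided by that of the vehicle-treated control group.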

[1] = dose: 60.0 mg/kg/injection, schedule: Q01DX005 (ip), vehicle: Klucel (hydroxypropylcellulose) (HPC)
[2] = dose: 120.0 mg/kg/injection, schedule: Q01DX005 (ip), vehicle: Klucel (hydroxypropylcellulose) (HPC)
[3] = dose: 240.0 mg/kg/injection, schedule: Q01DX005 (ip), vehicle: Klucel (hydroxypropylcellulose) (HPC)
[4] = dose: 100.0 mg/kg/injection, schedule: Q04DX003 (ip), vehicle: Klucel (hydroxypropylcellulose) (HPC)
[5] = dose: 50.0 mg/kg/injection, schedule: Q01DX009 (ip), vehicle: saline with Tween-80
[6] = dose: 100.0 mg/kg/injection, schedule: Q01DX009 (ip), vehicle: saline with Tween-80
[7] = dose: 50.0 mg/kg/injection, schedule: Q01DX005 (ip), vehicle: saline with Tween-80
[8] = dose: 100.0 mg/kg/injection, schedule: Q01DX005 (ip), vehicle: saline with Tween-80
[9] = dose: 200.0 mg/kg/injection, schedule: Q01DX005 (ip), vehicle: saline with Tween-80
[10] = dose: 50.0 mg/kg/injection, schedule: Q01DX005 (ip), vehicle: Klucel (hydroxypropylcellulose) (HPC)
[11] = dose: 100.0 mg/kg/injection, schedule: Q01DX005 (ip), vehicle: Klucel (hydroxypropylcellulose) (HPC)
[12] = dose: 200.0 mg/kg/injection, schedule: Q01DX005 (ip), vehicle: Klucel (hydroxypropylcellulose) (HPC)
[13] = dose: 100.0 mg/kg/injection, schedule: Q01DX009 (ip), vehicle: saline
[14] = dose: 25.0 mg/kg/injection, schedule: Q01DX009 (ip), vehicle: Klucel (hydroxypropylcellulose) (HPC)
[15] = dose: 50.0 mg/kg/injection, schedule: Q01DX009 (ip), vehicle: Klucel (hydroxypropylcellulose) (HPC)
[16] = dose: 100.0 mg/kg/injection, schedule: Q01DX009 (ip), vehicle: Klucel (hydroxypropylcellulose) (HPC)
[17] = dose: 200.0 mg/kg/injection, schedule: Q01DX009 (ip), vehicle: Klucel (hydroxypropylcellulose) (HPC)

`CN1C(=O)N(C)N(Cc2ccccc2)C(=O)N1Cc1ccccc1` was tested, and the T/C [1] was 97 % of control, the T/C [2] was 100 % of control and the T/C [3] was 96 % of control.

`Clc1cccc(Cl)c1C(Nc1nc2ccccc2s1)Nc1nc2ccccc2s1` was tested, and the T/C (dose: 50.0 mg/kg/injection, schedule: Q01DX005 (ip), vehicle: Klucel + Tween-80) was 110 % of control, the T/C (dose: 100.0 mg/kg/injection, schedule: Q01DX005 (ip), vehicle: Klucel + Tween-80) was 106 % of control and the T/C (dose: 200.0 mg/kg/injection, schedule: Q01DX005 (ip), vehicle: Klucel + Tween-80) was 109 % of control.

For `CCCCCCCCN(c1ccc(C(=O)NC(CCC(=O)OCC)C(=O)OCC)cc1)S(=O)(=O)c1ccc(C)cc1` (stereo not drawn), the T/C (dose: 12.5 mg/kg/injection, schedule: Q04DX003 (ip), vehicle: saline with Tween-80) was 104 % of control, the T/C (dose: 25.0 mg/kg/injection, schedule: Q04DX003 (ip), vehicle: saline with Tween-80) was 100 % of control and the T/C (dose: 50.0 mg/kg/injection, schedule: Q04DX003 (ip), vehicle: saline with Tween-80) was 95 % of control.

For `CCCCCCCC/C=C\CCCCCCCC(=O)OC/C=C/COC(=O)c1ccccc1`, the T/C [4] was 106 % of control, the T/C (dose: 200.0 mg/kg/injection, schedule: Q04DX003 (ip), vehicle: Klucel (hydroxypropylcellulose) (HPC)) was 99 % of control and the T/C (dose: 400.0 mg/kg/injection, schedule: Q04DX003 (ip), vehicle: Klucel (hydroxypropylcellulose) (HPC)) was 106 % of control.

For `CCC(C)CCC/C=C/CC(=O)NC(CC(=O)O)C(=O)NC(C(=O)NC(CC(=O)O)C(=O)NCC(=O)NC(CC(=O)O)C(=O)NCC(=O)NC(C(=O)NC(C(=O)N1CCCC1C(=O)NC(C)C1NC(=O)C2CCCCN2C1=O)C(C)C)C(C)N)C(C)C(=O)O` (stereo not drawn) (X10-D[ξAsp(βξ-Me)]DGDG[ξAbu(3ξ-NH2)]VP-X11; configuration not given here), the T/C (dose: 25.0 mg/kg/injection, schedule: Q01DX009 (ip), vehicle: saline + alcohol) was 103 % of control, the T/C (dose: 50.0 mg/kg/injection, schedule: Q01DX009 (ip), vehicle: saline + alcohol) was 103 % of control and the T/C (dose: 100.0 mg/kg/injection, schedule: Q01DX009 (ip), vehicle: saline + alcohol) was 107 % of control and 88 % of control.

With `COC(=O)C1(C(C)C)N=C(c2ccccc2)OO1` (stereo not drawn) the T/C (dose: 25.0 mg/kg/injection, schedule: Q01DX009 (ip), vehicle: saline with Tween-80) was 91 % of control, the T/C [5] was 100 % of control and the T/C [6] was 104 % of control.

For `NC(=O)N=Nc1cccc(Cl)c1`, the T/C [7] was 98 % of control, the T/C [8] was 104 % of control and the T/C [9] was 104 % of control.

With `CCOC(=O)c1c(SCC)c(C=C(C(C)=O)C(C)=O)c2ccccn12` the T/C (dose: 100.0 mg/kg/injection, schedule: Q01DX001 (ip), vehicle: saline with Tween-80) was 99 % of control, the T/C (dose: 200.0 mg/kg/injection, schedule: Q01DX001 (ip), vehicle: saline with Tween-80) was 95 % of control and the T/C (dose: 400.0 mg/kg/injection, schedule: Q01DX001 (ip), vehicle: saline with Tween-80) was 89 % of control.

`OCCN(CCO)c1cc2c3ccccc3ccc2c2ccccc12` was tested, and the T/C [10] was 87 % of control, the T/C [11] was 103 % of control and the T/C [12] was 98 % of control.

`Cc1noc(NS(=O)(=O)c2ccc(NC(=O)NCCCl)cc2)c1C` was tested, and the T/C (dose: 30.0 mg/kg/injection, schedule: Q01DX005 (ip), vehicle: Klucel (hydroxypropylcellulose) (HPC)) was 102 % of control, the T/C [1] was 98 % of control and the T/C [2] was 95 % of control. The T/C [3] was 97 % of control.

In the case of `Nc1cccc(=O)[nH]1`, the T/C [13] is reported as 95 % of control, the T/C (dose: 200.0 mg/kg/injection, schedule: Q01DX009 (ip), vehicle: saline) is reported as 109 % of control and the T/C (dose: 400.0 mg/kg/injection, schedule: Q01DX009 (ip), vehicle: saline) is reported as 113 % of control and 123 % of control.

`CCCOC1=NC2=NC(OCCC)=NC3=C(Br)C=C(Br)C(=N1)N23` was tested, and the T/C [10] was 95 % of control, the T/C [11] was 94 % of control and the T/C [12] was 91 % of control.

In the case of `O=C1CC(=O)N2C=CC=CC2N1` (stereo not drawn), the T/C [14] is reported as 106 % of control, the T/C [15] is reported as 106 % of control and the T/C [16] is reported as 97 % of control. The T/C [17] was 97 % of control.

In the case of `COc1ccc(NC2=NC(C)(CO)CS2)cc1` (stereo not drawn), the T/C [5] is reported as 116 % of control, the T/C [6] is reported as 96 % of control and the T/C (dose: 200.0 mg/kg/injection, schedule: Q01DX009 (ip), vehicle: saline with Tween-80) is reported as 107 % of control.

`Cn1c(C(O)CCl)nc2c3ccccc3ccc21` (stereo not drawn) was tested, and the T/C (dose: 25.0 mg/kg/injection, schedule: Q01DX009 (ip), vehicle: saline) was 109 % of control, the T/C (dose: 50.0 mg/kg/injection, schedule: Q01DX009 (ip), vehicle: saline) was 106 % of control and the T/C [13] was 109 % of control and 92 % of control.

`CCOC(=O)C1(CN2C(=O)c3ccccc3C2=O)C(=O)Nc2ccccc21` (stereo not drawn) was tested, and the T/C [15] was 87 % of control, the T/C [16] was 87 % of control and the T/C [17] was 87 % of control.

For `C=CCn1c(NC2=C(Cl)C(=O)c3ccccc3C2=O)cc(=O)[nH]c1=O`, the T/C (dose: 12.5 mg/kg/injection, schedule: Q01DX009 (ip), vehicle: Klucel (hydroxypropylcellulose) (HPC)) was 104 % of control, the T/C [14] was 98 % of control and the T/C [15] was 99 % of control and 98 % of control.

In the case of `Cc1ccc(S(=O)(=O)CC2OCC3OC(C)(C)OC23)cc1` (stereo not drawn), the T/C (dose: 12.5 mg/kg/injection, schedule: Q01DX009 (ip), vehicle: water) is reported as 100 % of control, the T/C (dose: 25.0 mg/kg/injection, schedule: Q01DX009 (ip), vehicle: water) is reported as 93 % of control and the T/C (dose: 50.0 mg/kg/injection, schedule: Q01DX009 (ip), vehicle: water) is reported as 89 % of control. The T/C (dose: 100.0 mg/kg/injection, schedule: Q01DX009 (ip), vehicle: water) was 100 % of control and the T/C (dose: 200.0 mg/kg/injection, schedule: Q01DX009 (ip), vehicle: water) was 94 % of control.

`COc1cccc2c1C(=O)c1c(O)c3c(c(O)c1C2=O)CC(O)(C(=O)CO)CC3OC1CC(N)C(I)C(C)O1` (stereo not drawn) was tested, and the T/C (dose: 5.0 mg/kg/injection, schedule: Q01DX001 (ip), vehicle: saline) was 165 % of control and 170 % of control, the T/C (dose: 7.5 mg/kg/injection, schedule: Q01DX001 (ip), vehicle: saline) was 167 % of control and 191 % of control and the T/C (dose: 11.2 mg/kg/injection, schedule: Q01DX001 (ip), vehicle: saline) was 208 % of control and 212 % of control. The T/C (dose: 16.8 mg/kg/injection, schedule: Q01DX001 (ip), vehicle: saline) was 220 % of control and the T/C (dose: 25.2 mg/kg/injection, schedule: Q01DX001 (ip), vehicle: saline) was 234 % of control.

In the case of `Cc1c([N+](=O)[O-])oc2c1C(=O)N([N+](=O)[O-])CCC2`, the T/C [4] is reported as 114 % of control.

With `CC(C)=CCC(O)/C(C)=C/CC/C(=C/CC/C(C)=C/CO)CO` (stereo not drawn) the T/C (dose: 3.88 mg/kg/injection, schedule: Q01DX005 (ip), vehicle: Klucel (hydroxypropylcellulose) (HPC)) was 93 % of control, the T/C (dose: 7.75 mg/kg/injection, schedule: Q01DX005 (ip), vehicle: Klucel (hydroxypropylcellulose) (HPC)) was 100 % of control and the T/C (dose: 15.5 mg/kg/injection, schedule: Q01DX005 (ip), vehicle: Klucel (hydroxypropylcellulose) (HPC)) was 102 % of control. For the same compound, the T/C (dose: 31.0 mg/kg/injection, schedule: Q01DX005 (ip), vehicle: Klucel (hydroxypropylcellulose) (HPC)) was 102 % of control.

For `CC(C)=CCOc1cc(O)c(CC2=C(O)C(C)(C)C(=O)C(C(=O)C(C)C)=C2O)c(O)c1C(=O)c1ccccc1`, the T/C (dose: 0.83 mg/kg/injection, schedule: Q01DX005 (ip), vehicle: DMSO) was 110 % of control, the T/C (dose: 1.65 mg/kg/injection, schedule: Q01DX005 (ip), vehicle: DMSO) was 103 % of control and the T/C (dose: 3.3 mg/kg/injection, schedule: Q01DX005 (ip), vehicle: DMSO) was 103 % of control. The T/C (dose: 6.6 mg/kg/injection, schedule: Q01DX005 (ip), vehicle: DMSO) was 88 % of control.

With `O=C(O)C(Nc1ccc2ccccc2c1)C(=O)O` the T/C [7] was 94 % of control, the T/C [8] was 103 % of control and the T/C [9] was 94 % of control.

For `COC(=O)CC(O)CCCCCCCCCCCCC(C)C` (stereo not drawn), the T/C (dose: 8.75 mg/kg/injection, schedule: Q01DX005 (ip), vehicle: Klucel + Tween-80) was 92 % of control, the T/C (dose: 17.5 mg/kg/injection, schedule: Q01DX005 (ip), vehicle: Klucel + Tween-80) was 100 % of control and the T/C (dose: 35.0 mg/kg/injection, schedule: Q01DX005 (ip), vehicle: Klucel + Tween-80) was 97 % of control.
